Values quoted from earlier work as cited in patent US20200396993A1, “COMPOSITIONS AND METHODS FOR RELEASE OF CYCLOPROPENES” (Hazel Technologies, Inc., priority 2017, published 2020).
≈ marks a conversion by molar mass, not a printed value.

Conditions: in water

## CC1=CC1 [Sample 1-MCP, 1-methylcyclopropene]
  solubility: 137 µg/mL (≈ 2530 µM)
